For 19 compounds, IC50 results are on record in patent US20240360148A1 (SUVALENT THERAPEUTICS, INC., priority 2021, published 2024).

Assay [1] deals with sumoylation levels (SUMO 2/3 conjugates) in HCT-116 cells. In words: HCT-116 4 Hour Cell Assay (Western, SUMO 2/3 conjugates). Type of assay: cell-based. The note with it: Homo sapiens, HCT-116, 4 h, 4 h treatment, Anti-Sumo 2-3 immunoblot, read-out: HCT-116 Western 4 h IC50 (μM) Ave. How it is done:
This protocol describes the procedures used to assess the effects of compounds of interest on sumoylation levels. Immunoblot of SUMO 2/3 conjugates are performed and IC50 curves are generated upon quantification of sumoylations bands. HCT-116 cells are seeded in a 12 well plate (500,000 cells/well). The following day the cells are treated with compounds of interest (resuspended in DMSO) for 4 hours (11 concentrations with a three-fold dilution; starting concentration 25 μM) Following 4 hours of incubation the cells are washed with ice cold PBS 1×and protein extraction is performed with RIPA buffer supplemented with phosphatases and proteases inhibitors, 25 mM of NEM and 50 units/mL of Benzonase. Samples undergo centrifugation at 13,000 RPM, 4° C., for 10 minutes and the supernatant is collected. Protein quantification is performed using BCA. Non-Reducing Laemmli Buffer is added to the samples. Samples are heated at 75° C. for 10 minutes, and are centrifuged for 3 minutes at 9000 RPM Nupage 4-12% Bis Tris gels and 1× MOPS buffer (Fisher Scientific)+1× NuPAGE Antioxidant (Invitrogen) are used to perform the SDS-PAGE gel electrophoresis (20 to 40 μg of proteins are loaded in the gels). Proteins are then transferred to PVDF membranes and the level of total proteins are measured by staining with Revert Total Protein Stain and the fluorescent bands are acquired using the LI-COR FC (700 nm for 1 min) Membranes are blocked for 5 minutes with Bio-Rad Blocking Buffer and are subsequently incubated over night at 4° C. with Anti-Sumo 2-3 mAb (M BL #M114-3, 1:1000 in Bio-Rad Blocking Buffer, 0.2% Tween 20) Membranes are washed with 1×TBS-T (3 times for 5 minutes) and sumoylation is detected using Li-cor IRDye 800CW Goat anti-Mouse IgG secondary antibody (1:10,000 dilution) upon 1 hour of incubation in blocking buffer with 0.2% Tween 20 and 0.01% SDS. After the incubation, the membranes are washed with 1×TBS-T (3 times for 5 minutes). To visualize the fluorescent bands the membranes are scanned with LI-COR FC (700 nm for 1 min and […] for 2 mins). Sumoylation levels are quantified upon normalization with total protein levels, using the LI-COR Image Studio Lite 5.2 Software.
Background: In western blotting, separated proteins are transferred to a membrane and probed.

In the next assay the target is SAE1 (Homo sapiens (Human), UniProt Q9UBE0+Q9UBT2). In words: SAE High Throughput Biochemical Assay (HTRF), 15 min preincubation. The settings on record: read-out: 15 min preincubation HTRF IC50 (μM) Ave, SAE1 12.5 nM, ATP 100 μM. Put shortly: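 SAE1 (12.5 nM) was preincubated with compound for 15 min at RT in HEPES pH 7.5, 0.1% BSA, 10 mM MgCl2. The reaction was then started with SUMO-GST and UBC9-His (40 nM each) plus 100 μM ATP for 45 min. After KF stop, HTRF (anti-GST-XL665/anti-His-EuK) was read at 2 h and overnight; some compounds were tested singly at 25 micromolar as percent of control.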
Sequence of SAE1 (Q9UBE0 whole entry): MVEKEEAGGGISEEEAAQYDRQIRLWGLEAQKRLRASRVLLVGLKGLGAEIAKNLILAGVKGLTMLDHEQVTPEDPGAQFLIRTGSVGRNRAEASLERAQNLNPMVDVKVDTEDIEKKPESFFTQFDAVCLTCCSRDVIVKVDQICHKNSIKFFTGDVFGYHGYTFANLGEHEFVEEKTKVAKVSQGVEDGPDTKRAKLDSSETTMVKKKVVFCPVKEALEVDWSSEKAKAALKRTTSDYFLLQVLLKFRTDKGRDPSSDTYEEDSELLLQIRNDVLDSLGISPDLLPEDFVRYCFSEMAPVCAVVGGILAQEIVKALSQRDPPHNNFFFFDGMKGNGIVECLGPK
Sequence of SAE1 (Q9UBT2 whole entry): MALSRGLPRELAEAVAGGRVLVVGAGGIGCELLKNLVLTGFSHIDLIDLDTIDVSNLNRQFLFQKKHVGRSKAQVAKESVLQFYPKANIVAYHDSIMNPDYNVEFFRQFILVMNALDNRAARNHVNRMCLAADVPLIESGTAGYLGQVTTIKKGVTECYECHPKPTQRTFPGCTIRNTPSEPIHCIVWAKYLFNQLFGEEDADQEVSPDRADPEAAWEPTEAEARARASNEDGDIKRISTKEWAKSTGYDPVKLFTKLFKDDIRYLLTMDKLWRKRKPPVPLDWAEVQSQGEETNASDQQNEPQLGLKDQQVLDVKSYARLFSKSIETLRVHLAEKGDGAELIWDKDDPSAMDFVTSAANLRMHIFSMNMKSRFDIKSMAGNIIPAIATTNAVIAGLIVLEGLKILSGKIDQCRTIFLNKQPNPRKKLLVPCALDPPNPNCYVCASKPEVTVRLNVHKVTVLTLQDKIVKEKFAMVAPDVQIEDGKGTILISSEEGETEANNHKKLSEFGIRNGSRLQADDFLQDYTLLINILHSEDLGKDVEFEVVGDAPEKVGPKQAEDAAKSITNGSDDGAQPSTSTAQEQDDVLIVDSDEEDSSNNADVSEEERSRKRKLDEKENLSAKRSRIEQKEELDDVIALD

One may read the IC50 as the concentration needed to halve the response being measured. On to `CCn1cc(-c2ccccc2[C@@H]2CN(C(=O)C#CCN(C)C)Cc3sc(C#N)cc32)c(C(F)(F)F)n1` [Example 132, (S)-6-(4-(Dimethylamino)but-2-ynoyl)-4-(2-(1-ethyl-3-(trifluoromethyl)-1 H-pyrazol-4-yl)phenyl)-4,5,6,7-tetrahydrothieno[2,3-c]pyridine-2-carbonitrile], for which the figures for the IC50 (in assay [1]; at SAE1) were 0.547 µM and 0.18 µM, respectively.
The matching figures for `CCn1cc(-c2ccccc2[C@@H]2CN(C(=O)/C=C/[C@H]3CC(C)(C)CN3)Cc3sc(C#N)cc32)c(C(F)(F)F)n1` [Example 82, (S)-6-((E)-3-((R)-4,4-Dimethylpyrrolidin-2-yl)acryloyl)-4-(2-(1-ethyl-3-(trifluoromethyl)-1H pyrazol-4-yl)phenyl)-4,5,6,7-tetrahydrothieno[2,3-c]pyridine-2-carbonitrile]: 0.357 µM and 1.08 µM.
For `CCn1cc(-c2c(F)cccc2[C@@H]2CN(C(=O)/C=C/CNC(C)C)Cc3sc(C#N)cc32)c(C(F)(F)F)n1` [Example 106, (S,E)-4-(2-(1-Ethyl-3-(trifluoromethyl)-1H pyrazol-4-yl)-3-fluorophenyl)-6-(4-(isopropylamino)but-2-enoyl)-4,5,6,7-tetrahydrothieno[2,3-c]pyridine-2-carbonitrile], in that order: 0.283 µM and 0.8 µM.
The matching figures for `CCN(CC)C/C=C/C(=O)N1Cc2sc(C#N)cc2[C@H](c2ccccc2-c2cn(CC)nc2C(F)(F)F)C1` [Example 28, (S, E)-6-(4-(Diethylamino)but-2-enoyl)-4-(2-(1-ethyl-3-(trifluoromethyl)-1 H-pyrazol-4-yl)phenyl)-4,5,6,7-tetrahydrothieno[2,3-c]pyridine-2-carbonitrile]: 0.331 µM and 8.43 µM.
As to `CCn1cc(-c2ccccc2[C@@H]2CN(C(=O)/C=C/[C@@H]3CC(C)(C)CN3)Cc3sc(C#N)cc32)c(C(F)(F)F)n1` [Example 83, (S)-6-((E)-3-((S)-4,4-Dimethylpyrrolidin-2-yl)acryloyl)-4-(2-(1-ethyl-3-(trifluoromethyl)-1H pyrazol-4-yl)phenyl)-4,5,6,7-tetrahydrothieno[2,3-c]pyridine-2-carbonitrile], the IC50 in assay [1] is 0.309 µM; on SAE1, 0.76 µM.
For `CCn1cc(-c2cc(O)ccc2C2CN(C(=O)/C=C/CN(C)C)Cc3sc(C#N)cc32)c(C(F)(F)F)n1` (stereo not drawn) [Example 203, (E)-6-(4-(Dimethylamino)but-2-enoyl)-4-(2-(1-ethyl-3-(trifluoromethyl)-1 H-pyrazol-4-yl)-4-hydroxyphenyl)-4,5,6,7-tetrahydrothieno[2,3-c]pyridine-2-carbonitrile], in that order: 0.767 µM and 4.75 µM.
In the case of `Cc1c(C#N)sc2c1[C@H](c1cccc(F)c1-c1cn(C)nc1C(F)(F)F)CN(C(=O)/C=C/CN(C)C)C2` [Compound 220], the values for the IC50 (in assay [1]; on SAE1) were 0.0573 µM and 0.067 µM, respectively.
The matching figures for `CCn1cc(-c2ccccc2[C@@H]2CN(C(=O)/C=C/[C@@H]3CCCN3)Cc3sc(C#N)cc32)c(C(F)(F)F)n1` [Example 112]: 0.209 µM and 0.76 µM.
The matching figures for `CCn1cc(-c2ccccc2[C@@H]2CN(C(=O)/C=C/CN)Cc3sc(C#N)cc32)c(C(F)(F)F)n1` [Example 125, (S, E)-6-(4-Aminobut-2-enoyl)-4-(2-(1-ethyl-3-(trifluoromethyl)-1 H-pyrazol-4-yl)phenyl)-4,5,6,7-tetrahydrothieno[2,3-c]pyridine-2-carbonitrile]: 0.543 µM and 1.23 µM.
The matching figures for `CN(C)C/C=C/C(=O)N1Cc2sc(C#N)cc2[C@H](c2cccc(F)c2-c2cn(C)nc2C(F)(F)F)C1` [Example 250, (S)-6-((E)-4-(dimethylamino)but-2-enoyl)-4-((S)-3-fluoro-2-(1-methyl-3-(trifluoromethyl)-1 H-pyrazol-4-yl)phenyl)-4,5,6,7-tetrahydrothieno[2,3-c]pyridine-2-carbonitrile]: 0.263 µM and 0.76 µM.
`CCn1cc(-c2ccccc2[C@@H]2CN(C(=O)/C=C/[C@@H]3CCCCN3)Cc3sc(C#N)cc32)c(C(F)(F)F)n1` [Example 115, (S)-4-(2-(1-Ethyl-3-(trifluoromethyl)-1H pyrazol-4-yl)phenyl)-6-((E)-3-((S)-piperidin-2-yl)acryloyl)-4,5,6,7-tetrahydrothieno[2,3-c]pyridine-2-carbonitrile]: the results for the IC50 (in assay [1]; on SAE1) were 0.6 µM and 1.95 µM, respectively.
Take `Cc1c(C#N)sc2c1[C@H](c1cccc(F)c1-c1cn(C)nc1C(F)(F)F)CN(C(=O)/C=C/[C@@H]1CCCN1)C2` [Example 251, (S)-4-(3-fluoro-2-(1-methyl-3-(trifluoromethyl)-1 H-pyrazol-4-yl)phenyl)-3-methyl-6-((E)-3-((S)-pyrrolidin-2-yl)acryloyl)-4,5,6,7-tetrahydrothieno[2,3-c]pyridine-2-carbonitrile]: the IC50 in assay [1] was 0.0822 µM; on SAE1, 0.11 µM.
The matching figures for `CCn1cc(-c2ccccc2[C@@H]2CN(C(=O)/C=C/[C@H]3C[C@@H](C)CN3)Cc3sc(C#N)cc32)c(C(F)(F)F)n1` [Example 81, (S)-4-(2-(1-Ethyl-3-(trifluoromethyl)-1 H-pyrazol-4-yl)phenyl)-6-((E)-3-((2R, 4R)-4-methylpyrrolidin-2-yl)acryloyl)-4,5,6,7-tetrahydrothieno[2,3-c]pyridine-2-carbonitrile]: 0.35 µM and 2.69 µM.
For `CCn1cc(-c2c(C3CN(C(=O)/C=C/CN(C)C)Cc4sc(C#N)cc43)ccc(O)c2F)c(C(F)(F)F)n1` (stereo not drawn) [Example 189, (E)-6-(4-(Dimethylamino)but-2-enoyl)-4-(2-(1-ethyl-3-(trifluoromethyl)-1 H-pyrazol-4-yl)-3-fluoro-4-hydroxyphenyl)-4,5,6,7-tetrahydrothieno[2,3-c]pyridine-2-carbonitrile], in that order: 0.46 µM and 1.67 µM.
Regarding `CCn1cc(-c2ccccc2[C@@H]2CN(C(=O)/C=C/C(F)F)Cc3sc(C#N)cc32)c(C(F)(F)F)n1` [Example 21, (S, E)-6-(4,4-difluorobut-2-enoyl)-4-(2-(1-ethyl-3-(trifluoromethyl)-1H-pyrazol-4-yl)phenyl)-4,5,6,7-tetrahydrothieno[2,3-c]pyridine-2-carbonitrile], in assay [1], the 50% inhibitory concentration (IC50) amounted to 0.12 µM.
Regarding `CN(C)C/C=C/C(=O)N1Cc2sc(C#N)cc2[C@H](c2ccccc2-c2cn(CC(=O)O)nc2C(F)(F)F)C1` [Example 172, (S, E)-2-(4-(2-(2-Cyano-6-(4-(dimethylamino)but-2-enoyl)-4,5,6,7-tetrahydrothieno[2,3-c]pyridin-4-yl)phenyl)-3-(trifluoromethyl)-1H pyrazol-1-yl)acetic acid], the IC50 at SAE1 came out at 21.1 µM.
For `CN(C)C/C=C/C(=O)N1Cc2sc(C#N)cc2[C@H](c2ccccc2-c2cn(-c3ccncc3F)nc2C(F)(F)F)C1` [Example 157, (S,E)-6-(4-(Dimethylamino)but-2-enoyl)-4-(2-(1-(3-fluoropyridin-4-yl)-3-(trifluoromethyl)-1H pyrazol-4-yl)phenyl)-4,5,6,7-tetrahydrothieno[2,3-c]pyridine-2-carbonitrile], the IC50 on SAE1 was determined as 18.6 µM.
Still for that read-out and setting: next, `CCn1cc(-c2cc(CO)ccc2C2CN(C(=O)/C=C/CN(C)C)Cc3sc(C#N)cc32)c(C(F)(F)F)n1` (stereo not drawn) [Example 194, (E)-6-(4-(Dimethylamino)but-2-enoyl)-4-(2-(1-ethyl-3-(trifluoromethyl)-1 H-pyrazol-4-yl)-4-(hydroxymethyl)phenyl)-4,5,6,7-tetrahydrothieno[2,3-c]pyridine-2-carbonitrile]: over 25 µM; `CCn1cc(-c2c(C3CN(C(=O)/C=C/CN(C)C)Cc4sc(C#N)cc43)ccc(F)c2F)c(C(F)(F)F)n1` (stereo not drawn) [Example 184, (E)-6-(4-(Dimethylamino)but-2-enoyl)-4-(2-(1-ethyl-3-(trifluoromethyl)-1 H-pyrazol-4-yl)-3,4-difluorophenyl)-4,5,6,7-tetrahydrothieno[2,3-c]pyridine-2-carbonitrile]: 8.37 µM.
